Measurements from patent US6914045B2, “Glycopeptide antibiotics” (Wyeth Holdings Corporation, priority 2001, dated 2005).
Converted amounts (≈) assume the structure as drawn.

What was measured:
Assay in all cases: in vitro antibacterial evaluation, MIC by broth dilution
Type in all cases: cell-based
[1] = system: Staphylococcus sp.; details: broth dilution, 18 hours at 35° C.; for MIC Staphylococcus aureus (GC 1131): strain GC 1131
Outline: (§1)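 Read-out: the lowest concentration at which the test strain fails to grow. Serial dilutions (64-0.06 μg/mL) in Muller-Hinton II […], 5×10^5 CFU/mL inoculum, NCCLS M7-A2 procedure.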

[2] = system: Escherichia coli
Outline: as §1

[3] = system: Streptococcus sp.; details: broth dilution, 18 hours at 35° C.; for MIC Streptococcus pneumoniae (ATCC 6301): strain ATCC 6301; for MIC Streptococcus pneumoniae (GC 1894): strain GC 1894; for MIC Streptococcus pyogenes (GC 4563): strain GC 4563; for MIC Streptococcus agalactiae (GC 4564): strain GC 4564; for MIC Streptococcus pneumoniae (GC 4565): strain GC 4565
Outline: as §1

[4] = system: Enterococcus sp.; details: broth dilution, 18 hours at 35° C.; for MIC Enterococcus faecalis (ATCC 29212): strain ATCC 29212; for MIC Enterococcus faecalis (GC 2242): strain GC 2242; for MIC Enterococcus faecium (GC 2243): strain GC 2243; for MIC Enterococcus faecalis (GC 2691): strain GC 2691; for MIC Enterococcus faecalis (GC 3059): strain GC 3059; for MIC Enterococcus faecalis (GC 4552): strain GC 4552; for MIC Enterococcus faecalis (GC 4553): strain GC 4553; for MIC Enterococcus faecalis (GC 4554): strain GC 4554; for MIC Enterococcus faecium (GC 4556): strain GC 4556; for MIC Enterococcus faecium (GC 4557): strain GC 4557; for MIC Enterococcus avium (GC 4558): strain GC 4558; for MIC Enterococcus faecalis (GC 6189): strain GC 6189
Outline: as §1

MIC Staphylococcus aureus (GC 1131) ([1]; inoculum 5×10^5 CFU/mL): 4 µg/mL (≈ 2.73 µM)
MIC Staphylococcus aureus (ATCC 29213) ([1]; strain ATCC 29213): 4 µg/mL (≈ 2.73 µM)
MIC Staphylococcus aureus (GC 1131) [1]: 4 µg/mL (≈ 2.73 µM)
MIC Staphylococcus aureus (GC 3051) ([1]; strain GC 3051): 8 µg/mL (≈ 5.46 µM)
MIC Staphylococcus aureus (GC 3053) ([1]; strain GC 3053): 8 µg/mL (≈ 5.46 µM)
MIC Staphylococcus aureus (GC 4541) ([1]; strain GC 4541): 4 µg/mL (≈ 2.73 µM)
MIC Staphylococcus aureus (GC 4542) ([1]; strain GC 4542): 4 µg/mL (≈ 2.73 µM)
MIC Staphylococcus aureus-SMITH (GC 4543) ([1]; strain GC 4543): 1 µg/mL (≈ 0.682 µM)
MIC Staphylococcus aureus (GC 4544) ([1]; strain GC 4544): 4 µg/mL (≈ 2.73 µM)
MIC Staphylococcus aureus (GC 4545) ([1]; strain GC 4545): 4 µg/mL (≈ 2.73 µM)
MIC Coagulase Negative Staphylococcus (GC 4547) ([1]; strain GC 4547): 8 µg/mL (≈ 5.46 µM)
MIC Coagulase Negative Staphylococcus (GC 4548) ([1]; strain GC 4548): 1 µg/mL (≈ 0.682 µM)
MIC Coagulase Negative Staphylococcus (GC 4549) ([1]; strain GC 4549): 4 µg/mL (≈ 2.73 µM)
MIC Coagulase Negative Staphylococcus (GC 4551) ([1]; strain GC 4551): 2 µg/mL (≈ 1.36 µM)
MIC Coagulase Negative Staphylococcus (GC 6257) ([1]; strain GC 6257): 2 µg/mL (≈ 1.36 µM)
MIC Staphylococcus aureus-SMITH (GC 4543) ([1]; strain SMITH GC 4543): 1 µg/mL (≈ 0.682 µM)
MIC Escherichia coli (ATCC 25922) ([2]; strain ATCC 25922, 18 hours at 35° C.): >64 µg/mL
MIC Escherichia coli (GC 4559) ([2]; strain GC 4559, 18 hours at 35° C.): 64 µg/mL (≈ 43.7 µM)
MIC Escherichia coli (GC 4560) ([2]; strain GC 4560, 18 hours at 35° C.): 8 µg/mL (≈ 5.46 µM)
MIC Streptococcus pneumoniae (ATCC 6301) ([3]; inoculum 5×10^5 CFU/mL): <0.5 µg/mL
MIC Streptococcus pneumoniae (GC 1894) ([3]; inoculum 5×10^5 CFU/mL): <0.5 µg/mL
MIC Streptococcus pyogenes (GC 4563) ([3]; inoculum 5×10^5 CFU/mL): <0.5 µg/mL
MIC Streptococcus agalactiae (GC 4564) ([3]; inoculum 5×10^5 CFU/mL): <0.5 µg/mL
MIC Streptococcus pneumoniae (GC 4565) ([3]; inoculum 5×10^5 CFU/mL): 1 µg/mL (≈ 0.682 µM)
MIC Streptococcus pneumoniae (ATCC 6301) [3]: <0.5 µg/mL
MIC Streptococcus pneumoniae (GC 1894) [3]: <0.5 µg/mL
MIC Streptococcus pyogenes (GC 4563) [3]: <0.5 µg/mL
MIC Streptococcus agalactiae (GC 4564) [3]: <0.5 µg/mL
MIC Streptococcus pneumoniae (GC 4565) [3]: 1 µg/mL (≈ 0.682 µM)
MIC Enterococcus faecalis (ATCC 29212) ([4]; inoculum 5×10^5 CFU/mL): 8 µg/mL (≈ 5.46 µM)
MIC Enterococcus faecalis (GC 2242) ([4]; inoculum 5×10^5 CFU/mL): 4 µg/mL (≈ 2.73 µM)
MIC Enterococcus faecium (GC 2243) ([4]; inoculum 5×10^5 CFU/mL): 8 µg/mL (≈ 5.46 µM)
MIC Enterococcus faecalis (GC 2691) ([4]; inoculum 5×10^5 CFU/mL): 4 µg/mL (≈ 2.73 µM)
MIC Enterococcus faecalis (GC 3059) ([4]; inoculum 5×10^5 CFU/mL): 8 µg/mL (≈ 5.46 µM)
MIC Enterococcus faecalis (GC 4552) ([4]; inoculum 5×10^5 CFU/mL): 8 µg/mL (≈ 5.46 µM)
MIC Enterococcus faecalis (GC 4553) ([4]; inoculum 5×10^5 CFU/mL): 4 µg/mL (≈ 2.73 µM)
MIC Enterococcus faecalis (GC 4554) ([4]; inoculum 5×10^5 CFU/mL): 8 µg/mL (≈ 5.46 µM)
MIC Enterococcus faecium (GC 4556) ([4]; inoculum 5×10^5 CFU/mL): 4 µg/mL (≈ 2.73 µM)
MIC Enterococcus faecium (GC 4557) ([4]; inoculum 5×10^5 CFU/mL): 8 µg/mL (≈ 5.46 µM)
MIC Enterococcus avium (GC 4558) ([4]; inoculum 5×10^5 CFU/mL): 4 µg/mL (≈ 2.73 µM)
MIC Enterococcus faecalis (GC 6189) ([4]; inoculum 5×10^5 CFU/mL): 4 µg/mL (≈ 2.73 µM)
MIC Enterococcus faecalis (ATCC 29212) [4]: 8 µg/mL (≈ 5.46 µM)
MIC Enterococcus faecalis (GC 2242) [4]: 4 µg/mL (≈ 2.73 µM)
MIC Enterococcus faecium (GC 2243) [4]: 8 µg/mL (≈ 5.46 µM)
MIC Enterococcus faecalis (GC 2691) [4]: 4 µg/mL (≈ 2.73 µM)
MIC Enterococcus faecalis (GC 3059) [4]: 8 µg/mL (≈ 5.46 µM)
MIC Enterococcus faecalis (GC 4552) [4]: 8 µg/mL (≈ 5.46 µM)
MIC Enterococcus faecalis (GC 4553) [4]: 4 µg/mL (≈ 2.73 µM)
MIC Enterococcus faecalis (GC 4554) [4]: 8 µg/mL (≈ 5.46 µM)
MIC Enterococcus faecium (GC 4556) [4]: 4 µg/mL (≈ 2.73 µM)
MIC Enterococcus faecium (GC 4557) [4]: 8 µg/mL (≈ 5.46 µM)
MIC Enterococcus avium (GC 4558) [4]: 4 µg/mL (≈ 2.73 µM)
MIC Enterococcus faecalis (GC 6189) [4]: 4 µg/mL (≈ 2.73 µM)
Compound: CC(c1ccccc1)C1NC(=O)CNC(=O)C(CO)NC(=O)C(C(O)C2CNC(=N)N2C2OC(CO)C(O)C(O)C2O)NC(=O)C(C(O)C2CNC(=N)N2)NC(=O)C(Cc2ccc(OC3OC(CO)C(OC4OC5COC(c6ccc(-c7cccs7)cc6)OC5C(O)C4O)C(O)C3O)cc2)NC1=O (stereo not drawn) [Example 163]
MIC Staphylococcus haemolyticus (GC 4546) ([1]; strain GC 4546): 4 µg/mL (≈ 2.73 µM)
